Here are results for 5 molecules from ChEMBL document CHEMBL1201862, “PubChem BioAssay data set” (2004).

A short description of assay [1]: Fluorescence-based cell-based high throughput dose response assay for inhibitors of the interaction of nucleotide-binding oligomerization domain containing 2 (NOD2) and the receptor-interacting serine-threonine kinase 2 (RIPK2). The assay is classed as functional. The note with it: Homo sapiens.
For assay [2], the target named is Glucose-6-phosphate 1-dehydrogenase (Homo sapiens, UniProt P11413). As to the kind of experiment: human G6PD enzyme inhibitors, dose response, selectivity assay for P. falciparum G6PD inhibitor project, biochemical, fluorescence (AID 504792). The assay is classed as functional.
Chain of Glucose-6-phosphate 1-dehydrogenase (P11413 whole entry): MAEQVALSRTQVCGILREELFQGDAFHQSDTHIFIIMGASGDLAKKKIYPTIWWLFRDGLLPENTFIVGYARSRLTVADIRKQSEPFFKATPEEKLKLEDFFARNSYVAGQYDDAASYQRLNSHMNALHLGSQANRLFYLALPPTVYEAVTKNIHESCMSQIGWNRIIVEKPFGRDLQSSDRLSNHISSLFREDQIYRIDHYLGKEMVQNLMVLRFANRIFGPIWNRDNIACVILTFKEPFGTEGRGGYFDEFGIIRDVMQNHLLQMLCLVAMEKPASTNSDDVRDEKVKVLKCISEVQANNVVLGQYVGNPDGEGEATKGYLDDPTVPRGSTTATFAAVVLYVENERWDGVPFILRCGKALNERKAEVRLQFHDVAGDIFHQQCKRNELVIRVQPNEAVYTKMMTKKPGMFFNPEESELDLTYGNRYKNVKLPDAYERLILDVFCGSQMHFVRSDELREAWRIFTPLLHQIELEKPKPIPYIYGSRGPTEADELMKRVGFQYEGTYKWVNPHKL
Assay [3] addresses T1, Tyrosyl-DNA phosphodiesterase 2 (Homo sapiens, UniProt O95551).
T1 sequence (O95551 whole entry): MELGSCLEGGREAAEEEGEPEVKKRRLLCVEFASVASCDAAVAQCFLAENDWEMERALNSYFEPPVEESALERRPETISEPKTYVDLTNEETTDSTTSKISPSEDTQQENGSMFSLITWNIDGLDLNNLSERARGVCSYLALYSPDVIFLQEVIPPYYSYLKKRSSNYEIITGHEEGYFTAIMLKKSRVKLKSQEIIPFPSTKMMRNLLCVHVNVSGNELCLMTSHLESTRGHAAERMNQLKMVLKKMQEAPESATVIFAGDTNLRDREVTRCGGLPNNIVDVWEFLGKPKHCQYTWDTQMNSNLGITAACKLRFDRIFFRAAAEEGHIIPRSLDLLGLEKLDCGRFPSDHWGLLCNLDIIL
As to the kind of experiment: human TDP2 enzyme inhibitors, dose response, biochemical, epi absorbance, IC50 (AID 743297).

For another assay, the target named is Beta-galactosidase (Escherichia coli, UniProt Q8VNN2). Briefly: beta-galactosidase enzyme inhibitors and activators, dose response, artefact control for CCR6 antagonist project, biochemical, E. coli enzyme, set 3 (AID 504712). The assay is classed as functional.
Chain of Beta-galactosidase (Q8VNN2 whole entry): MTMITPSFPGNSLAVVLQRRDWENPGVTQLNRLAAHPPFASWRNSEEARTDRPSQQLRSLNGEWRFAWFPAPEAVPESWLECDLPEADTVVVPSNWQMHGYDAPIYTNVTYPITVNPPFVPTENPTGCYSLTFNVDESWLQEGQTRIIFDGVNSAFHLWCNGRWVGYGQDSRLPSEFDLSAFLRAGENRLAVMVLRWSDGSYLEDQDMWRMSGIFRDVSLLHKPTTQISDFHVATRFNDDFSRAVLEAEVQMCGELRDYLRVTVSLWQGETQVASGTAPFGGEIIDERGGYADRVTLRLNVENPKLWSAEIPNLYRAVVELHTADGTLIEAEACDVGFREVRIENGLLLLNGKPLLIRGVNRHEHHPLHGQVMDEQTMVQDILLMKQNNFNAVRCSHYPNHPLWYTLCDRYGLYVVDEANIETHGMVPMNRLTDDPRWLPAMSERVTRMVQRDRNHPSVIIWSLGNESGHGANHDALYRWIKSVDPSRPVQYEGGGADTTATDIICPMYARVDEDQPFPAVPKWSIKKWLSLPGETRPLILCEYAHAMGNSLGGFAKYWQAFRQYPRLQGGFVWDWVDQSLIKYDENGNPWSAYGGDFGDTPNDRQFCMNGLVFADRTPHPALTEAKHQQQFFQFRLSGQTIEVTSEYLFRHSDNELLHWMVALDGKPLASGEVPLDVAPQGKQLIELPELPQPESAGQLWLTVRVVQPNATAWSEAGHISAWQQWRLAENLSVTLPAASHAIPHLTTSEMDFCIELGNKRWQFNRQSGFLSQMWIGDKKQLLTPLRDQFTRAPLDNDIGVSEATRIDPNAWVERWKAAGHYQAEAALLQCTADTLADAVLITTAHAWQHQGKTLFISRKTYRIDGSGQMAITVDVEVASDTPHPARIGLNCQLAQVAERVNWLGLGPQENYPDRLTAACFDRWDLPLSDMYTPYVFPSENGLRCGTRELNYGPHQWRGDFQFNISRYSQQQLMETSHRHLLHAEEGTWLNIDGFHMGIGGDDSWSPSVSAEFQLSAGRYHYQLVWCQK
Assay [4] concerns the target T2, C-C chemokine receptor type 6 (Homo sapiens, UniProt P51684).
T2 sequence (P51684 whole entry): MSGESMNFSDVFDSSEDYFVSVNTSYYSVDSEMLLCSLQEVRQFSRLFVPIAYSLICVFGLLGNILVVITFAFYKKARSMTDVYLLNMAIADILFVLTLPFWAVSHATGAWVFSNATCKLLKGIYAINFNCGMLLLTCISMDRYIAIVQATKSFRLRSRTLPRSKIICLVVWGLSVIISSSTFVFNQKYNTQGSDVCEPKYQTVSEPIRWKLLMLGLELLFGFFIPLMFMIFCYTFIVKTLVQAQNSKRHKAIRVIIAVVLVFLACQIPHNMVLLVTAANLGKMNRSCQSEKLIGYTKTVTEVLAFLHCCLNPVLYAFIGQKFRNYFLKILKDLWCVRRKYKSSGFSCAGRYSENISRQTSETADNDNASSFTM
Briefly: CCR6 receptor antagonists, dose response, cell-based, luminescent beta-arrestin readout (AID 504728). Format: functional.

The next assay deals with Genome polyprotein (dengue virus type 2, UniProt P29990). Briefly: Dengue-2 NS5 methyltransferase inhibitors, primary screen, biochemical, confirmation dose response (AID 588689). The assay is classed as functional.
Chain of Genome polyprotein (P29990 2492-3391 limits assumed): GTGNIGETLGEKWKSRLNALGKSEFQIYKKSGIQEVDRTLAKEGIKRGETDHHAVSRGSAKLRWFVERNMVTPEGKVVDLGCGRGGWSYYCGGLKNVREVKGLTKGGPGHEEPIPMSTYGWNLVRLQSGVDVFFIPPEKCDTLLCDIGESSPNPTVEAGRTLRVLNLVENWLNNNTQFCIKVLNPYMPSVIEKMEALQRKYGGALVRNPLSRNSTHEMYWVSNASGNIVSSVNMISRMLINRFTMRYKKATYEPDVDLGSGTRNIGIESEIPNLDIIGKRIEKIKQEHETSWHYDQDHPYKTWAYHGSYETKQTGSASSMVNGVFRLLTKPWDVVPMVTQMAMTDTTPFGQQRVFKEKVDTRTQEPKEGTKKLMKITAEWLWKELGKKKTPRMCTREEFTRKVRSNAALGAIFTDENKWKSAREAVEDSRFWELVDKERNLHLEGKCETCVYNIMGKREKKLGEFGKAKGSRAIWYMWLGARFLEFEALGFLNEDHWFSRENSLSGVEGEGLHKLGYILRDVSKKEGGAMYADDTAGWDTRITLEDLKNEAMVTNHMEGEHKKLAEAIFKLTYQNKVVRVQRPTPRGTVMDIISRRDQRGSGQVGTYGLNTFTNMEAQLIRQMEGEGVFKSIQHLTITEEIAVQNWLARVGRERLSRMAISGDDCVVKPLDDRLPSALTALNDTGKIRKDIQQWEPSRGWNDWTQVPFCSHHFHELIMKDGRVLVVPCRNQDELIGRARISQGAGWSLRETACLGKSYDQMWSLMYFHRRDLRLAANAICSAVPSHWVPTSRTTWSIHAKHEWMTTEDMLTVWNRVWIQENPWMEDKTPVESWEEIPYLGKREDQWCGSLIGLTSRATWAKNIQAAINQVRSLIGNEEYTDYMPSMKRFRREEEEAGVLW
Assay [5] can be described thus: THP-1 cell cytotoxicity, dose response, cytotoxicity control for Vif-APOBEC3G degradation inhibitor project, THP-1 cells (AID 1117359). The assay is classed as functional. Particulars: Human immunodeficiency virus 1, THP-1.
The next assay has as its system Vero. Briefly: Vero cell cytotoxicity, cytotoxicity control for flavivirus capping enzyme inhibitors (AID 588742). Format: functional. The note with it: Chlorocebus sabaeus.
For another assay, the target named is Paired box protein Pax-8 (Homo sapiens, UniProt Q06710). As to the kind of experiment: inhibitors of PAX8-driven TPO luciferase reporter, dose response, RMG-I cells, cherry-pick (AID 687027).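 Further: luciferase reporter driven by Pax8 target thyroperoxidase promoter measured by SteadyGlo luminescence.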 Format: functional, cell-based. (In general: In a reporter assay the amount or activity of a reporter protein is the signal.)
Chain of Paired box protein Pax-8 (Q06710 whole entry): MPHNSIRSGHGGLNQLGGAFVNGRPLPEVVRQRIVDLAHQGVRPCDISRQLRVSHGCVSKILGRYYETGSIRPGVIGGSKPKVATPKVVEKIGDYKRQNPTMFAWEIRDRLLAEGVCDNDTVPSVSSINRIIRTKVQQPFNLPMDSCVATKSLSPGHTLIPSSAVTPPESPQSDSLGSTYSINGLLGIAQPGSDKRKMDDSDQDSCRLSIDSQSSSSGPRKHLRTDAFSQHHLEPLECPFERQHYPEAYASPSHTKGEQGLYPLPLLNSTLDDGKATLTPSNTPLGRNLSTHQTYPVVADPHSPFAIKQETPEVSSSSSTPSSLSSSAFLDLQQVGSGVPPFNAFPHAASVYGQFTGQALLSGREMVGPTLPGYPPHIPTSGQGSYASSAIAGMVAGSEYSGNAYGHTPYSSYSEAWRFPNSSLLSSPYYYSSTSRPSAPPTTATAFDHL
A short description of assay [6]: non-specific cell cytotoxicity, dose response, cytotoxicity control for PAX8 inhibitor project, plate reader, dry powder samples (AID 743021). Format: functional, cell-based.
For another assay, the target named is T3, Hexokinase HKDC1 (Homo sapiens, UniProt Q2TB90).
T3 sequence (Q2TB90 whole entry): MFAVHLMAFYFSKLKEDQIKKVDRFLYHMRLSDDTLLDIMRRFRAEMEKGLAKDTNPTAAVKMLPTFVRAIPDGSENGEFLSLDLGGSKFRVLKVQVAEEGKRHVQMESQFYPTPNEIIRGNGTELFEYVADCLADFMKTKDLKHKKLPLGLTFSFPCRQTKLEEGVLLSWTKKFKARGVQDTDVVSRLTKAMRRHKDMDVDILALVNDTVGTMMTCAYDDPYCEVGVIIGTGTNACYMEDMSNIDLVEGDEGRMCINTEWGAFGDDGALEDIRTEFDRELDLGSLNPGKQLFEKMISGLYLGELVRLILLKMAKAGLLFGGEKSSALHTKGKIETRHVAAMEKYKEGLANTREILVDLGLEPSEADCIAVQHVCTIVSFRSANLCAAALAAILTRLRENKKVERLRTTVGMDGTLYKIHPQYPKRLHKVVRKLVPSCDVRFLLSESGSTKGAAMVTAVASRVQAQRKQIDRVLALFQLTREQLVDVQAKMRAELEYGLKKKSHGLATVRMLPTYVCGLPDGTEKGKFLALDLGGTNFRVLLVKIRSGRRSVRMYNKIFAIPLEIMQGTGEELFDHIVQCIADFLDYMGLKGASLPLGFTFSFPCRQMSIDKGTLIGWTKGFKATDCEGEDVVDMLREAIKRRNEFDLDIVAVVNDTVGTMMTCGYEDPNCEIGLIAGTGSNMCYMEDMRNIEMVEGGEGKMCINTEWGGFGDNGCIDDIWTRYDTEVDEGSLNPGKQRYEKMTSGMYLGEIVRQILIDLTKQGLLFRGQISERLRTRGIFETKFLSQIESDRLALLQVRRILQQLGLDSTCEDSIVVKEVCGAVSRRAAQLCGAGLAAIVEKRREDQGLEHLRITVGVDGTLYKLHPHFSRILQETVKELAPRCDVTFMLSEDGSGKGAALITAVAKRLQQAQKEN
Briefly: HKDC1 hexokinase inhibitors, dose response, biochemical, W721R variant (AID 504729). Format: functional.

Assay [7] concerns the target T4, Mitochondrial peptide methionine sulfoxide reductase (Bos taurus, UniProt P54149).
T4 sequence (P54149 whole entry): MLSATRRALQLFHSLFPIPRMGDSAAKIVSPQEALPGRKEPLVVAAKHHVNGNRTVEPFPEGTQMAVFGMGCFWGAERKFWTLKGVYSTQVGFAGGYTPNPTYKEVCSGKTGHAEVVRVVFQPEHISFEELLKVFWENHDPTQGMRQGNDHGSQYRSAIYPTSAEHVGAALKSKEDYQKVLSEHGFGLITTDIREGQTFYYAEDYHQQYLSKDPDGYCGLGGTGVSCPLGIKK
Briefly: Absorbance-based biochemical high throughput dose response assay for activators of Methionine sulfoxide reductase A (MsrA). Format: functional.

Assay [8] deals with HEK293. Briefly: HEK cell cytotoxicity by LDH release, dose response, cytotoxicity control for IDE activator project, fluorescence, HEK cells (AID 588440).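 Further: cytotoxicity by LDH release measuring loss of membrane integrity.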 Format: functional, cell-based. Particulars: Homo sapiens. On the technique in general: LDH leaks from cells whose membrane has failed.
Assay [9] has as its target T5, Insulin-degrading enzyme (Homo sapiens, UniProt P14735).
T5 sequence (P14735 whole entry): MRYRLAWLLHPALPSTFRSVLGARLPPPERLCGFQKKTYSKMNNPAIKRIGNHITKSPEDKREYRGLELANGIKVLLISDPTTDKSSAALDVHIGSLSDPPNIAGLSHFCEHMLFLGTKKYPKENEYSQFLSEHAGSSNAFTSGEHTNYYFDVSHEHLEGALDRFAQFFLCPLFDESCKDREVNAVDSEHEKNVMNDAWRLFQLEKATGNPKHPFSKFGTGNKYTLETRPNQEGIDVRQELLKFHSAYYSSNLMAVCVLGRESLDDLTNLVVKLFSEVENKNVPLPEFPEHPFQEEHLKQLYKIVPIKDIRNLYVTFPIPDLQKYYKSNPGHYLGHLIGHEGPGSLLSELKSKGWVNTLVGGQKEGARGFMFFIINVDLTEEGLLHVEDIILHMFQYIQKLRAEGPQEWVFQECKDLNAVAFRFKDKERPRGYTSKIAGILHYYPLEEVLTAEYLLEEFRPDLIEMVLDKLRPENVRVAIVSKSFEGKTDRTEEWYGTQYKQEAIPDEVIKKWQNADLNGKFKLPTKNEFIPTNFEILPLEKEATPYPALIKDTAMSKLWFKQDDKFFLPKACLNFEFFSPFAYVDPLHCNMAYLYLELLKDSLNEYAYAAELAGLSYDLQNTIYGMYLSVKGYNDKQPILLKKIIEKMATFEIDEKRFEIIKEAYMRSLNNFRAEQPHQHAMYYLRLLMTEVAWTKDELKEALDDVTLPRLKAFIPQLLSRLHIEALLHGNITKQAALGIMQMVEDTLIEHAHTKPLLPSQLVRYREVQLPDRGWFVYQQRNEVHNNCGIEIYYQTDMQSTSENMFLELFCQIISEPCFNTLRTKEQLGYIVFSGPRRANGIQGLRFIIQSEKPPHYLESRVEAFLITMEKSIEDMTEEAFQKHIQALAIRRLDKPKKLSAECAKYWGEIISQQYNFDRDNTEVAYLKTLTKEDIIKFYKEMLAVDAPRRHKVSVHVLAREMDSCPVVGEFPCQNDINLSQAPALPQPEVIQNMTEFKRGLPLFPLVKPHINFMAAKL
Briefly: activators of endogenous IDE in HEK cells, dose response, cell-based, fluorescence polarization (AID 588439). Format: functional. On the technique in general: In fluorescence polarisation assays a small probe gives low polarisation when free and higher when bound to something large.

In assay [10] the test system is HEK293. As to the kind of experiment: optical interference in Abeta FP readout, dose response, artefact control for IDE activator project, biochemical, fluorescence polarization (AID 588442). The assay is classed as functional, cell-based. The note with it: Homo sapiens.
Assay [11] deals with T5, Insulin-degrading enzyme. Briefly: activators of recombinant IDE enzyme, dose response, counter-screen for IDE activator project, biochemical, fluorescence polarization (AID 588681).
The next assay has as its target Phospholipase D2 (Homo sapiens, UniProt O14939). Briefly: PLD2 inhibitor potency in cells, dose response (AID 602147).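 Further: cellular assay in HEK293 cells overexpressing GFP-tagged PLD2.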 Format: functional.
The target in the next assay is Phospholipase D1 (Homo sapiens, UniProt Q13393). Briefly: PLD1 inhibitor potency in cells, dose response (AID 602151).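 Further: cellular PLD1 assay in Calu-1 cells stimulated with PMA.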 The assay is classed as functional.
Chain of Phospholipase D1 (Q13393 whole entry): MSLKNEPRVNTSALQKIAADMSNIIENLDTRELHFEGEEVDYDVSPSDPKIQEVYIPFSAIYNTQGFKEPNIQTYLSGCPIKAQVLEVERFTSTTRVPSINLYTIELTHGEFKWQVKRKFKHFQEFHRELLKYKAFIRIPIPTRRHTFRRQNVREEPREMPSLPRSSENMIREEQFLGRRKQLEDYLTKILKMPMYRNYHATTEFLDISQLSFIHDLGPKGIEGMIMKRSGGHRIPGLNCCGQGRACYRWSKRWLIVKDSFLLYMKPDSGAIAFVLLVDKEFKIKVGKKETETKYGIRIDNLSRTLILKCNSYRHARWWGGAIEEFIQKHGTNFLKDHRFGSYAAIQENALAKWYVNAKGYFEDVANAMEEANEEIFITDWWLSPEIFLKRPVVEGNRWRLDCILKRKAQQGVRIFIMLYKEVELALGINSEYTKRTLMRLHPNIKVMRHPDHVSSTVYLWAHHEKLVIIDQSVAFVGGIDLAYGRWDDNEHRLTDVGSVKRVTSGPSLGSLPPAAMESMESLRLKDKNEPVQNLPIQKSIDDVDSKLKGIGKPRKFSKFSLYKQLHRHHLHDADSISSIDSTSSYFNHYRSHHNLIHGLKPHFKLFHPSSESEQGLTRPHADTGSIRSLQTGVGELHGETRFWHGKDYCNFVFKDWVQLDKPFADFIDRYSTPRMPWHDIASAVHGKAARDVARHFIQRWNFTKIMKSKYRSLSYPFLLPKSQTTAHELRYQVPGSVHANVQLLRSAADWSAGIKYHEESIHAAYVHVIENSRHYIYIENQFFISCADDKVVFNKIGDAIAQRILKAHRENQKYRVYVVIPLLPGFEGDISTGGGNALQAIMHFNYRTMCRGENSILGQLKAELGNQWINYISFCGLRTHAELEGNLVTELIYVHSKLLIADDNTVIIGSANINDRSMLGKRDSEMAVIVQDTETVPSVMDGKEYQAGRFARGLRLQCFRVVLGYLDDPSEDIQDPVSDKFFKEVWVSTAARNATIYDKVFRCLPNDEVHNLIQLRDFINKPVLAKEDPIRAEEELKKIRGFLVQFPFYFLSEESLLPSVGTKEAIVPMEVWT

The structures appear in SMILES notation. The source made the active and inactive calls. Where only a bound is given, the exact number is not on record here.

Chain of Phospholipase D2 (O14939 whole entry): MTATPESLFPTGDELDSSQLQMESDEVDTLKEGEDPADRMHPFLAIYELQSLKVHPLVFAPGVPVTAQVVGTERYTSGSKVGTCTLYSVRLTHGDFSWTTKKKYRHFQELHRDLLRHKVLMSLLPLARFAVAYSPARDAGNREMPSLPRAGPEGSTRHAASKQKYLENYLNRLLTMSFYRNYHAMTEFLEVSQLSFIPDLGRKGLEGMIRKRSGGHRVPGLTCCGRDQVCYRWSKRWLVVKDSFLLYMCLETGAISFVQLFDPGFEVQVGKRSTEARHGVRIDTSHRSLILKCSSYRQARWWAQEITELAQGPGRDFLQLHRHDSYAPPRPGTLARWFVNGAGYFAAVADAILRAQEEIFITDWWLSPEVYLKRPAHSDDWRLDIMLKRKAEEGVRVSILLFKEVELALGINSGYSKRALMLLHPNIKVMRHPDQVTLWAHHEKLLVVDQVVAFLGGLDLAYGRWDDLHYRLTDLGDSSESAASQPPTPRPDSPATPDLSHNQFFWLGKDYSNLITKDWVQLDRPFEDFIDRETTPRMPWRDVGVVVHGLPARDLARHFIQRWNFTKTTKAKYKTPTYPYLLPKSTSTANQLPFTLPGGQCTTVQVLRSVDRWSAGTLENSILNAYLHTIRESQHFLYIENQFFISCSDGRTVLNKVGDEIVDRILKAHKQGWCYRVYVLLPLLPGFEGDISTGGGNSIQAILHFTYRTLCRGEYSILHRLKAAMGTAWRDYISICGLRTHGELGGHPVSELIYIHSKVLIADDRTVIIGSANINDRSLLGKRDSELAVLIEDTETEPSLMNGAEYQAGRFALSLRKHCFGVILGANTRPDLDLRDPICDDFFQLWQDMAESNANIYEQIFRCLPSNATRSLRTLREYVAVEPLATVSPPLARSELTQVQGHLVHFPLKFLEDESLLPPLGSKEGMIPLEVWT

Regarding `O=C(NC1=CC(=O)c2ccccc2C1=O)c1ccccc1`, the IC50 in assay [1] was 2.06 µM (active); in [2], 35.7 µM (inactive); in [3] it was 11.7 µM (inactive); at Beta-galactosidase, > 66.6 µM (inactive); in assay [4], > 66.6 µM (inactive); at Genome polyprotein, 18.5 µM (active). Moreover, on Hexokinase HKDC1, the IC50 was 3.09 µM (active). For the same molecule, the CC50 in [5] is 2.65 µM (active); in the assay with Vero, 15.2 µM (active). In addition, the AC50 at Paired box protein Pax-8 is 4.43 µM (active); in [6], 24.2 µM (active). In [7], the EC50 was 34.1 µM (inactive).

Take `COC(=O)C(C(=O)OC)c1ncccc1[N+](=O)[O-]`: the IC50 in the assay on HEK293 [8] is > 89.1 µM (inactive). For the same molecule, the EC50 is > 54.7 µM (inactive) on Insulin-degrading enzyme [9], > 55.9 µM (inactive) in the assay on HEK293 [10] and > 54.7 µM (inactive) on Insulin-degrading enzyme [11].

In the case of `CC(C)[C@@H](CN1CCC2(CC1)C(=O)NCN2c1ccccc1)NC(=O)c1ccc2ccccc2c1`, the results for the IC50 on Phospholipase D2 and on Phospholipase D1 were 1.5 µM (active) and 0.14 µM (active), respectively.

For `O=C(CSc1nc(N2CCOCC2)nc(N2CCOCC2)n1)Nc1ccc([N+](=O)[O-])cc1`, the IC50 with HEK293 [8] is > 89.2 µM (inactive). Moreover, the EC50 is > 54.7 µM (inactive) on Insulin-degrading enzyme [9], 21.2 µM (inactive) in the assay on HEK293 [10] and > 54.7 µM (inactive) on Insulin-degrading enzyme [11].

As to `C[C@@H](CN1CCC(n2c(=O)[nH]c3cc(I)ccc32)CC1)NC(=O)C1CC1c1ccccc1` (some centres undefined), the IC50 was 6.5 µM (active) at Phospholipase D2 and 0.021 µM (active) at Phospholipase D1.

The IC50 is the concentration that gives 50% inhibition. As usually defined, the CC50 is the concentration that lowers cell viability or growth by half. Usually AC50 stands for the concentration giving half of the maximal activity seen. The term EC50 denotes the concentration that produces a half-maximal response.
